Experimental data from the supplement of paper PMC10307832.

Columns and labels:
Test in all cases: relative viability (nuclei count vs DMSO), 5 days (fraction); higher = more cells survive
NCI-H2023 = test system: NCI-H2023
Procedure, shortened: (§1)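 Nuclei were stained with Hoechst during a one-step fixation (final 0.05% Triton X-100, 1% formaldehyde, 1 ug/ml Hoechst) carried out 5 days after dosing, then counted on 4× images. The cells, lung cancer lines in 1536-well plates, had been dosed by pin tool the day after seeding with one drug alone or a fixed anchor-drug dose plus five library-drug doses (not always all listed) in √10 steps. Relative viability is the nuclei count in treated wells divided by that in vehicle wells, and each value is the median of duplicate plates.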

NCI-H1993 = test system: NCI-H1993
Procedure, shortened: as §1

NCI-H2009 = test system: NCI-H2009
Procedure, shortened: as §1

NCI-H2126 = test system: NCI-H2126
Procedure, shortened: as §1

NCI-H2347 = test system: NCI-H2347
Procedure, shortened: as §1

EPLC-272H = test system: EPLC-272H
Procedure, shortened: as §1

NCI-H661 = test system: NCI-H661
Procedure, shortened: as §1

NCI-H647 = test system: NCI-H647
Procedure, shortened: as §1

EMC-BAC-2 = test system: EMC-BAC-2
Procedure, shortened: as §1

SK-LU-1 = test system: SK-LU-1
Procedure, shortened: as §1

NCI-H1734 = test system: NCI-H1734
Procedure, shortened: as §1

NCI-H1915 = test system: NCI-H1915
Procedure, shortened: as §1

H3255 = test system: H3255
Procedure, shortened: as §1

NCI-H2085 = test system: NCI-H2085
Procedure, shortened: as §1

NCI-H322M = test system: NCI-H322M
Procedure, shortened: as §1

NCI-H727 = test system: NCI-H727
Procedure, shortened: as §1

SW 1573 = test system: SW 1573
Procedure, shortened: as §1

LXF-289 = test system: LXF-289
Procedure, shortened: as §1

LCLC-97TM1 = test system: LCLC-97TM1
Procedure, shortened: as §1

HOP-62 = test system: HOP-62
Procedure, shortened: as §1

PC-14 = test system: PC-14
Procedure, shortened: as §1

For Nc1ccn([C@@H]2O[C@H](CO)[C@@H](O)[C@@H]2O)c(=O)n1 [Cytarabine] + O=C(CCCCCCC(=O)Nc1ccccc1)NO [Vorinostat] (partner 1 µM), the relative viability (NCI-H2023; first compound 0.005 µM) was 0.434, the relative viability (NCI-H2023; first compound 0.01581 µM) was 0.225 and the relative viability (NCI-H2023; first compound 0.05 µM) was 0.22. The relative viability (NCI-H2023; first compound 0.1581 µM) was 0.101, the relative viability (NCI-H2023; first compound 0.5 µM) was 0.0846 and the relative viability (NCI-H1993; first compound 0.005 µM) was 0.865. For the same compound, the relative viability (NCI-H1993; first compound 0.01581 µM) was 0.556, the relative viability (NCI-H1993; first compound 0.05 µM) was 0.751 and the relative viability (NCI-H1993; first compound 0.1581 µM) was 0.503. It also gave a relative viability (NCI-H1993; first compound 0.5 µM) of 0.602, a relative viability (NCI-H2009; first compound 0.005 µM) of 0.751 and a relative viability (NCI-H2009; first compound 0.01581 µM) of 0.698. The relative viability (NCI-H2009; first compound 0.05 µM) was 0.71, the relative viability (NCI-H2009; first compound 0.1581 µM) was 0.52 and the relative viability (NCI-H2009; first compound 0.5 µM) was 0.198. For the same compound, the relative viability (NCI-H2126; first compound 0.005 µM) was 0.649, the relative viability (NCI-H2126; first compound 0.01581 µM) was 0.681 and the relative viability (NCI-H2126; first compound 0.05 µM) was 0.448. For the same compound, the relative viability (NCI-H2126; first compound 0.1581 µM) was 0.593, the relative viability (NCI-H2126; first compound 0.5 µM) was 0.44 and the relative viability (NCI-H2347; first compound 0.005 µM) was 0.531. The relative viability (NCI-H2347; first compound 0.01581 µM) was 0.586, the relative viability (NCI-H2347; first compound 0.05 µM) was 0.555 and the relative viability (NCI-H2347; first compound 0.1581 µM) was 0.498. For the same compound, the relative viability (NCI-H2347; first compound 0.5 µM) was 0.409, the relative viability (EPLC-272H; first compound 0.005 µM) was 0.461 and the relative viability (EPLC-272H; first compound 0.01581 µM) was 0.393. The relative viability (EPLC-272H; first compound 0.05 µM) was 0.398, the relative viability (EPLC-272H; first compound 0.1581 µM) was 0.174 and the relative viability (EPLC-272H; first compound 0.5 µM) was 0.155. The relative viability (NCI-H661; first compound 0.005 µM) was 0.751, the relative viability (NCI-H661; first compound 0.01581 µM) was 0.698 and the relative viability (NCI-H661; first compound 0.05 µM) was 0.6. For the same compound, the relative viability (NCI-H661; first compound 0.1581 µM) was 0.513, the relative viability (NCI-H661; first compound 0.5 µM) was 0.456 and the relative viability (NCI-H647; first compound 0.005 µM) was 0.284. It also gave a relative viability (NCI-H647; first compound 0.01581 µM) of 0.294, a relative viability (NCI-H647; first compound 0.05 µM) of 0.149 and a relative viability (NCI-H647; first compound 0.1581 µM) of 0.0878. It also gave a relative viability (NCI-H647; first compound 0.5 µM) of 0.0778, a relative viability (EMC-BAC-2; first compound 0.005 µM) of 0.494 and a relative viability (EMC-BAC-2; first compound 0.01581 µM) of 0.448. For the same compound, the relative viability (EMC-BAC-2; first compound 0.05 µM) was 0.165, the relative viability (EMC-BAC-2; first compound 0.1581 µM) was 0.29 and the relative viability (EMC-BAC-2; first compound 0.5 µM) was 0.182. It also gave a relative viability (SK-LU-1; first compound 0.005 µM) of 0.509, a relative viability (SK-LU-1; first compound 0.01581 µM) of 0.665 and a relative viability (SK-LU-1; first compound 0.05 µM) of 0.632. It also gave a relative viability (SK-LU-1; first compound 0.1581 µM) of 0.479, a relative viability (SK-LU-1; first compound 0.5 µM) of 0.422 and a relative viability (NCI-H1734; first compound 0.005 µM) of 0.493. It also gave a relative viability (NCI-H1734; first compound 0.01581 µM) of 0.361, a relative viability (NCI-H1734; first compound 0.05 µM) of 0.317 and a relative viability (NCI-H1734; first compound 0.1581 µM) of 0.138. It also gave a relative viability (NCI-H1734; first compound 0.5 µM) of 0.125, a relative viability (NCI-H1915; first compound 0.005 µM) of 0.477 and a relative viability (NCI-H1915; first compound 0.01581 µM) of 0.424. For the same compound, the relative viability (NCI-H1915; first compound 0.05 µM) was 0.375, the relative viability (NCI-H1915; first compound 0.1581 µM) was 0.318 and the relative viability (NCI-H1915; first compound 0.5 µM) was 0.235. For the same compound, the relative viability (H3255; first compound 0.005 µM) was 0.862, the relative viability (H3255; first compound 0.01581 µM) was 0.853 and the relative viability (H3255; first compound 0.05 µM) was 0.655. For the same compound, the relative viability (H3255; first compound 0.1581 µM) was 0.608, the relative viability (H3255; first compound 0.5 µM) was 0.878 and the relative viability (NCI-H2085; first compound 0.005 µM) was 0.698. The relative viability (NCI-H2085; first compound 0.01581 µM) was 0.79, the relative viability (NCI-H2085; first compound 0.05 µM) was 0.744 and the relative viability (NCI-H2085; first compound 0.1581 µM) was 0.618. The relative viability (NCI-H2085; first compound 0.5 µM) was 0.635, the relative viability (NCI-H322M; first compound 0.005 µM) was 0.804 and the relative viability (NCI-H322M; first compound 0.01581 µM) was 0.785. For the same compound, the relative viability (NCI-H322M; first compound 0.05 µM) was 0.641, the relative viability (NCI-H322M; first compound 0.1581 µM) was 0.589 and the relative viability (NCI-H322M; first compound 0.5 µM) was 0.426. It also gave a relative viability (NCI-H727; first compound 0.005 µM) of 1.22, a relative viability (NCI-H727; first compound 0.01581 µM) of 1.16 and a relative viability (NCI-H727; first compound 0.05 µM) of 0.566. The relative viability (NCI-H727; first compound 0.1581 µM) was 0.552, the relative viability (NCI-H727; first compound 0.5 µM) was 0.524 and the relative viability (SW 1573; first compound 0.005 µM) was 0.606. The relative viability (SW 1573; first compound 0.01581 µM) was 0.552, the relative viability (SW 1573; first compound 0.05 µM) was 0.677 and the relative viability (SW 1573; first compound 0.1581 µM) was 0.225. The relative viability (SW 1573; first compound 0.5 µM) was 0.15, the relative viability (LXF-289; first compound 0.005 µM) was 0.736 and the relative viability (LXF-289; first compound 0.01581 µM) was 0.856. For the same compound, the relative viability (LXF-289; first compound 0.05 µM) was 0.639, the relative viability (LXF-289; first compound 0.1581 µM) was 0.464 and the relative viability (LXF-289; first compound 0.5 µM) was 0.27. The relative viability (LCLC-97TM1; first compound 0.005 µM) was 0.752, the relative viability (LCLC-97TM1; first compound 0.01581 µM) was 0.562 and the relative viability (LCLC-97TM1; first compound 0.05 µM) was 0.166. For the same compound, the relative viability (LCLC-97TM1; first compound 0.1581 µM) was 0.275, the relative viability (LCLC-97TM1; first compound 0.5 µM) was 0.102 and the relative viability (HOP-62; first compound 0.005 µM) was 0.633. For the same compound, the relative viability (HOP-62; first compound 0.01581 µM) was 0.406, the relative viability (HOP-62; first compound 0.05 µM) was 0.437 and the relative viability (HOP-62; first compound 0.1581 µM) was 0.115. For the same compound, the relative viability (HOP-62; first compound 0.5 µM) was 0.0936, the relative viability (PC-14; first compound 0.005 µM) was 0.519 and the relative viability (PC-14; first compound 0.01581 µM) was 0.601. The relative viability (PC-14; first compound 0.05 µM) was 0.617, the relative viability (PC-14; first compound 0.1581 µM) was 0.154 and the relative viability (PC-14; first compound 0.5 µM) was 0.082.
